In assay [1] the target is T1, cloned human P2Y1 receptors (Homo sapiens (Human), UniProt P47900). Description: Binding Assay A - membrane binding assay, [33P] 2MeS-ADP (WGA FlashPlate). The following applies: values marked * in Table 1; 0.5 nM [33P] 2MeS-ADP, Cheng-Prusoff; read-out: P2Y1 Ki (nM) using binding assay A. The source says:
A membrane binding assay was used to identify inhibitors of [^33P] […] The cDNA clone for human P2Y1 was obtained from Incyte Pharmaceuticals and its sequence confirmed by established techniques (for a compendium of techniques used see Ausubel, F. et al., Current Protocols in Molecular Biology, John Wiley and Sons, NY, NY (1995)). The essential coding sequences were subcloned into pCDNA 3.1 (Invitrogen) to produce a P2Y1 expression construct. This construct was then transfected into the human embryonic kidney cell line HEK-293 and stable transfectants selected in GENETICIN® (G418 sulfate; Life Technologies). […] Membranes were prepared by growing HEK293 #49 in 150 mm dishes in DMEM/10% FBS in the presence of 1 mg/ml G418 until cells were 80-90% confluent. Plates were then washed with cold (4° C.) D-PBS twice and cells harvested by scraping into 10 mL D-PBS. Cells were pelleted by centrifugation (1,000 g, 10 min, 4° C.) and the resulting pellet resuspended in Lysis Buffer (10 mM Tris (7.4), 5 mM MgCl2 containing Complete protease inhibitor cocktail (Roche Cat #1873580) as recommended by the manufacturer). The suspension was then homogenized in a Dounce homogenizer (10-15 strokes; B pestle, on ice) and the homogenate spun at 1,000 g, 4° C., 5 min to pellet large debris. The supernatant was centrifuged at 150,000 g, 4° C., for 1 hour and the resulting membrane pellet resuspended in 0.5-1 mL of Buffer B (15 mM HEPES (7.4), 145 mM NaCl, 0.1 mM MgCl2, 5 mM EDTA, 5 mM KCl) and stored at −70° C. until used.
Binding reactions were performed in WGA FLASHPLATE®s (PerkinElmer Life Sciences, Cat # SMP105A) in a volume of 200 μL containing ˜45 fmol of P2Y1 receptor (5 μg of total protein), 0.5 nM [^33P] […] Reactions were allowed to proceed to completion at room temperature for 1 hour and then the aqueous solution aspirated. Plates were sealed and the residual [^33P] bound to the plate determined by scintillation counting.

Assay [2] has as its system human platelet rich plasma (PRP). Description: ADP induced platelet aggregation assay. The following applies: Homo sapiens, Platelet, 5 min, read-out: PA IC50 (μM) @ 10 μM ADP, human PRP, 10 μM ADP, AUC at 5 minute.
In assay [3] the target is T1, cloned human P2Y1 receptors. Description: Binding Assay B - Scintillation Proximity Assay (SPA) for P2Y1 binding, [33P] 2MeS-ADP. The following applies: read-out: P2Y1 Ki (nM) using binding assay B. The procedure:
Binding Assay B—Scintillation Proximity Assay (SPA) for P2Y1 Binding
A SPA membrane binding assay was used to identify inhibitors of [^33P] […] Reactions were allowed to proceed to completion at room temperature for 1 hour followed by centrifugation of the plate for 5 min. About 40 μL of the aqueous solution was aspirated. Plates were sealed and the [^33P]
On the technique in general: In a scintillation proximity assay essentially only radioactivity close to the scintillant gives light.

[4] abbreviates: SPA, 0.3 nM [33P] 2MeS-ADP, Cheng-Prusoff.

Molecules are shown by their SMILES.

T1 sequence (P47900 whole entry): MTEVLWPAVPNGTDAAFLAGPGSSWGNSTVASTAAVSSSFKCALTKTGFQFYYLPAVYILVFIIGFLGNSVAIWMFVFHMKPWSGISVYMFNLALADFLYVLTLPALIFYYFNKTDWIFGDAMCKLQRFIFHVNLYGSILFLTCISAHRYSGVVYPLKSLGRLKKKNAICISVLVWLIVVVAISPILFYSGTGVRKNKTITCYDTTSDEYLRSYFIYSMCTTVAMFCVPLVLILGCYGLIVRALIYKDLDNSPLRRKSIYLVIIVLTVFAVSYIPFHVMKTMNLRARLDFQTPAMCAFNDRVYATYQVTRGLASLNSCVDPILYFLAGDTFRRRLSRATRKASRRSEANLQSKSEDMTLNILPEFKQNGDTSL

For orientation: Ki means the dissociation constant of the complex between target and ligand, obtained from inhibition or displacement. The term IC50 denotes the concentration at which inhibition is half-maximal. `CCC1(CC)CN(c2ccccc2NC(=O)Nc2ccc(C3CCCN3CC(C)C)cc2)c2c1ccc(F)c2O` (centres unmarked) [Example 36, 1-(2-(3,3-Diethyl-6-fluoro-7-hydroxyindolin-1-yl)phenyl)-3-(4-(1-isobutylpyrrolidin-2-yl)phenyl)urea]: in assay [1], the Ki turned out to be 5.7 nM. For the same molecule, in assay [2], the IC50 amounted to 0.21 µM.
The like results for `CCC1(CC)CN(c2ccccc2NC(=O)Nc2nc(C(C)C)ns2)c2c(O)ccc(Cl)c21` [Example 48, 1-(2-(4-Chloro-3,3-diethyl-7-hydroxyindolin-1-yl)phenyl)-3-(3-isopropyl-1,2,4-thiadiazol-5-yl)urea] were, in that order, 7 nM and 0.48 µM.
The like results for `CCC1(CC)CN(c2ccccc2NC(=O)Nc2nc3ccc(F)cc3s2)c2c(O)ccc(Cl)c21` [Example 49, 1-(2-(4-Chloro-3,3-diethyl-7-hydroxyindolin-1-yl)phenyl)-3-(6-fluorobenzo[d]thiazol-2-yl)urea] were, in that order, 6.6 nM and 0.18 µM.
The like results for `CC1(C)CN(c2ccccc2NC(=O)Nc2ccc(OC(F)(F)F)cc2)c2c(O)ccc(-c3ccc(F)cn3)c21` [Example 123, 1-(2-(4-(5-Fluoropyridin-2-yl)-7-hydroxy-3,3-dimethylindolin-1-yl)phenyl)-3-(4-(trifluoromethoxy)phenyl)urea] were, in that order, 4.5 nM and 0.43 µM.
Regarding `CC1(C)CN(c2ccccc2NC(=O)Nc2ccc(OC(F)(F)F)cc2)c2c(O)ccc(-c3nccs3)c21` [Example 124, 1-(2-(7-Hydroxy-3,3-dimethyl-4-(thiazol-2-yl)indolin-1-yl)phenyl)-3-(4-(trifluoromethoxy)phenyl)urea], the Ki in assay [1] came out at 3.4 nM. In addition, in assay [2], the IC50 came out at 0.82 µM.
Consider `CC1(C)CN(c2ccccc2NC(=O)Nc2ccc(OC(F)(F)F)cc2)c2c(O)ccc(-c3ccc(C(F)(F)F)cn3)c21` [Example 125, 1-(2-(7-Hydroxy-3,3-dimethyl-4-(5-(trifluoromethyl)pyridin-2-yl)indolin-1-yl)phenyl)-3-(4-(trifluoromethoxy)phenyl)urea], for which, in assay [1], the Ki amounted to 4.8 nM. Besides, the IC50 in assay [2] worked out at 0.15 µM.
Taken in the same sequence, the figures for `CC(C)c1cnc(-c2ccc(O)c3c2C(C)(C)CN3c2ccccc2NC(=O)Nc2ccc(OC(F)(F)F)cc2)nc1` [Example 126, 1-(2-(7-Hydroxy-4-(5-isopropylpyrimidin-2-yl)-3,3-dimethylindolin-1-yl)phenyl)-3-(4-(trifluoromethoxy)phenyl)urea] were 4.1 nM and 0.3 µM.
The like results for `CC(C)c1nc(-c2ccc(O)c3c2C(C)(C)CN3c2ccccc2NC(=O)Nc2ccc(OC(F)(F)F)cc2)cs1` [Example 127, 1-(2-(7-Hydroxy-4-(2-isopropylthiazol-4-yl)-3,3-dimethylindolin-1-yl)phenyl)-3-(4-(trifluoromethoxy)phenyl)urea] were, in that order, 4.7 nM and 0.28 µM.
The like results for `CC1(C)CN(c2ccccc2NC(=O)Nc2nc3ccc(F)cc3s2)c2c(O)ccc(-c3nc4cc(F)ccc4s3)c21` [Example 171, 1-(6-Fluorobenzo[d]thiazol-2-yl)-3-(2-(4-(5-fluorobenzo[d]thiazol-2-yl)-7-hydroxy-3,3-dimethylindolin-1-yl)phenyl)urea] were, in that order, 8.7 nM and 0.36 µM.
Consider `CC1(C)CN(c2ccccc2NC(=O)Nc2nc3ccc(Cl)nc3s2)c2c(O)ccc(-c3nc4cc(F)ccc4s3)c21` [Example 173, 1-(5-Chlorothiazolo[5,4-b]pyridin-2-yl)-3-(2-(4-(5-fluorobenzo[d]thiazol-2-yl)-7-hydroxy-3,3-dimethylindolin-1-yl)phenyl)urea], for which, in assay [1], the Ki was found to be 20.7 nM. Moreover, the concentration for half-maximal inhibition (IC50) in assay [2] was found to be 0.5 µM.
The like results for `CC1(C)CN(c2ccccc2NC(=O)Nc2ccc(OC(F)(F)F)cc2)c2c(O)ccc(-c3nc4ccc(F)cc4s3)c21` [Example 174, 1-(2-(4-(6-Fluorobenzo[d]thiazol-2-yl)-7-hydroxy-3,3-dimethylindolin-1-yl)phenyl)-3-(4-(trifluoromethoxy)phenyl)urea] were, in that order, 6.3 nM and 0.32 µM.
As for `CC(C)(C)c1nc(-c2c(F)cc(O)c3c2C(C)(C)CN3c2ccccc2NC(=O)Nc2nc3ccc(Cl)cc3s2)co1` [Example 270, 1-(2-(4-(2-(tert-Butyl)oxazol-4-yl)-5-fluoro-7-hydroxy-3,3-dimethylindolin-1-yl)phenyl)-3-(6-chlorobenzo[d]thiazol-2-yl)urea], in assay [2], the IC50 was determined as 0.43 µM. Moreover, the Ki in assay [3] (setting [4]) came out at 17.3 nM.
Regarding `CC(C)n1nc(-c2c(F)cc(O)c3c2C(C)(C)CN3c2ccccc2NC(=O)Nc2ccc(OC(F)(F)F)cc2)cc1C(F)(F)F` [Example 271, 1-(2-(5-Fluoro-7-hydroxy-4-(1-isopropyl-5-(trifluoromethyl)-1H-pyrazol-3-yl)-3,3-dimethylindolin-1-yl)phenyl)-3-(4-(trifluoromethoxy)phenyl)urea], the IC50 in assay [2] is 0.07 µM. Further, the Ki in assay [3] (setting [4]) worked out at 12.4 nM.
The like results for `CC(C)n1nc(-c2c(F)cc(O)c3c2C(C)(C)CN3c2ccccc2NC(=O)Nc2csc(C(F)(F)F)n2)cc1C(F)(F)F` [Example 272, 1-(2-(5-Fluoro-7-hydroxy-4-(1-isopropyl-5-(trifluoromethyl)-1H-pyrazol-3-yl)-3,3-dimethylindolin-1-yl)phenyl)-3-(2-(trifluoromethyl)thiazol-4-yl)urea] were, in that order, 0.18 µM and 16.7 nM.
The like results for `CC(C)n1nc(-c2c(F)cc(O)c3c2C(C)(C)CN3c2ccccc2NC(=O)Nc2csc(Cl)n2)cc1C(F)(F)F` [Example 273, 1-(2-Chlorothiazol-4-yl)-3-(2-(5-fluoro-7-hydroxy-4-(1-isopropyl-5-(trifluoromethyl)-1H-pyrazol-3-yl)-3,3-dimethylindolin-1-yl)phenyl)urea] were, in that order, 0.05 µM and 9.4 nM.
The like results for `Cc1nc(-c2c(F)cc(O)c3c2C(C)(C)CN3c2ccccc2NC(=O)Nc2ccc(OC(F)(F)F)cc2)co1` [Example 274, 1-(2-(5-Fluoro-7-hydroxy-3,3-dimethyl-4-(2-methyloxazol-4-yl)indolin-1-yl)phenyl)-3-(4-(trifluoromethoxy)phenyl)urea] were, in that order, 3.39 µM and 7.4 nM.
Consider `CC1(C)CN(c2ccccc2NC(=O)Nc2ccc(OC(F)(F)F)cc2)c2c(O)cc(F)c(-c3noc(C(F)(F)F)n3)c21` [Example 276, 1-(2-(5-Fluoro-7-hydroxy-3,3-dimethyl-4-(5-(trifluoromethyl)-1,2,4-oxadiazol-3-yl)indolin-1-yl)phenyl)-3-(4-(trifluoromethoxy)phenyl)urea], for which, in assay [2], the half-inhibitory concentration (IC50) worked out at 0.64 µM. The Ki in assay [3] (setting [4]) stood at 48.7 nM.
The like results for `CC1(C)CN(c2ccccc2NC(=O)Nc2nc3ccc(F)cc3s2)c2c(O)cc(F)c(-c3noc(C(F)(F)F)n3)c21` [Example 277, 1-(2-(5-Fluoro-7-hydroxy-3,3-dimethyl-4-(5-(trifluoromethyl)-1,2,4-oxadiazol-3-yl)indolin-1-yl)phenyl)-3-(6-fluorobenzo[d]thiazol-2-yl)urea] were, in that order, 0.26 µM and 54.9 nM.
Turning to `CC(C)(C)c1nc(-c2c(F)cc(O)c3c2C(C)(C)CN3c2ccccc2NC(=O)Nc2ccc(OC(F)(F)F)cc2)no1` [Example 278, 1-(2-(4-(5-(tert-Butyl)-1,2,4-oxadiazol-3-yl)-5-fluoro-7-hydroxy-3,3-dimethylindolin-1-yl)phenyl)-3-(4-(trifluoromethoxy)phenyl)urea], in assay [2], the IC50 is 0.21 µM. Besides, in assay [3], the Ki was found to be 8.1 nM.

The values are drawn from patent US9540323B2 (BRISTOL-MYERS SQUIBB COMPANY, priority 2012, dated 2017).
